Experimental data from ChEMBL document CHEMBL3272135, “Quantitative relationships between steroid structure and binding to putative progesterone receptors” (J Med Chem, 1977).

Key:
[1] = molecular target: T1, Progesterone receptor (Homo sapiens) (UniProt P06401)
T1 sequence (whole entry): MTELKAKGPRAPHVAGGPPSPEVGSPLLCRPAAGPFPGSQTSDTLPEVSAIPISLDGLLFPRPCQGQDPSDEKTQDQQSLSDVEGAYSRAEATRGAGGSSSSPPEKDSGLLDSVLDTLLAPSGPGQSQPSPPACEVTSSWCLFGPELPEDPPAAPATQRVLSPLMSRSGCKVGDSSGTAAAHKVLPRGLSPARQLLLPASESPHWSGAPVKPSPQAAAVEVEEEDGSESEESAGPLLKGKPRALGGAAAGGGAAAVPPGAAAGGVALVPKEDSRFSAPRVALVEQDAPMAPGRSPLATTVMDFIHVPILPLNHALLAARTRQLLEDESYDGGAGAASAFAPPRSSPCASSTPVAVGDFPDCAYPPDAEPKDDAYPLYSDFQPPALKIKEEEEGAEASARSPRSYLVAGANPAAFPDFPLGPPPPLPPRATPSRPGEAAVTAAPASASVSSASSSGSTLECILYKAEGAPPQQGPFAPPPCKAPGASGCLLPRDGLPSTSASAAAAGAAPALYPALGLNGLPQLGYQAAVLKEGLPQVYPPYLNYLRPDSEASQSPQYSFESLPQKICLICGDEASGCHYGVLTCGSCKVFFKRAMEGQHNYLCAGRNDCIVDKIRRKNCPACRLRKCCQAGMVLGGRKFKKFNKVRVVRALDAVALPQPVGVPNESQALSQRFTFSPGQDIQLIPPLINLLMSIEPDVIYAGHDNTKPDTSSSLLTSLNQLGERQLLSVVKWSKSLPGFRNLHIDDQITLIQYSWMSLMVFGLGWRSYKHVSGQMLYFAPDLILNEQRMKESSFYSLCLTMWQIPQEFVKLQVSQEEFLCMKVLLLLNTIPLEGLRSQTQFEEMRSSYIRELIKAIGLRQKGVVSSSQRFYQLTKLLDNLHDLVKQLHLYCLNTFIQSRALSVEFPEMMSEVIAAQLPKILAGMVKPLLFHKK

[2] = organism: Cavia porcellus; experiment: Relative binding affinity to guinea pig progesterone receptor
[3] = molecular target: T2, Progesterone receptor (Ovis aries) (UniProt Q28590); experiment: Relative binding affinity to sheep progesterone receptor
T2 sequence (whole entry): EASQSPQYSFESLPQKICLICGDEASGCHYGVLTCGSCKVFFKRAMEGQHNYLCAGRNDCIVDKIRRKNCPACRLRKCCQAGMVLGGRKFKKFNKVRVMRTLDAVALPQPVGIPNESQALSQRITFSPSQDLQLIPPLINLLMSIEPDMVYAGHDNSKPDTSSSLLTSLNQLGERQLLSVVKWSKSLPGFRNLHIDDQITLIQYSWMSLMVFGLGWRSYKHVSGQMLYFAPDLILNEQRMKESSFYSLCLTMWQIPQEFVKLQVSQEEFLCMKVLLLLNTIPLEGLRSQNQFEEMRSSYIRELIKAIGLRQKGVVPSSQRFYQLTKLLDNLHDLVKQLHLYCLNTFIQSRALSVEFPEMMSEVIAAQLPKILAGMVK

[4] = molecular target: T3, Progesterone receptor (Oryctolagus cuniculus) (UniProt P06186); experiment: Relative binding affinity to rabbit progesterone receptor
T3 sequence (whole entry): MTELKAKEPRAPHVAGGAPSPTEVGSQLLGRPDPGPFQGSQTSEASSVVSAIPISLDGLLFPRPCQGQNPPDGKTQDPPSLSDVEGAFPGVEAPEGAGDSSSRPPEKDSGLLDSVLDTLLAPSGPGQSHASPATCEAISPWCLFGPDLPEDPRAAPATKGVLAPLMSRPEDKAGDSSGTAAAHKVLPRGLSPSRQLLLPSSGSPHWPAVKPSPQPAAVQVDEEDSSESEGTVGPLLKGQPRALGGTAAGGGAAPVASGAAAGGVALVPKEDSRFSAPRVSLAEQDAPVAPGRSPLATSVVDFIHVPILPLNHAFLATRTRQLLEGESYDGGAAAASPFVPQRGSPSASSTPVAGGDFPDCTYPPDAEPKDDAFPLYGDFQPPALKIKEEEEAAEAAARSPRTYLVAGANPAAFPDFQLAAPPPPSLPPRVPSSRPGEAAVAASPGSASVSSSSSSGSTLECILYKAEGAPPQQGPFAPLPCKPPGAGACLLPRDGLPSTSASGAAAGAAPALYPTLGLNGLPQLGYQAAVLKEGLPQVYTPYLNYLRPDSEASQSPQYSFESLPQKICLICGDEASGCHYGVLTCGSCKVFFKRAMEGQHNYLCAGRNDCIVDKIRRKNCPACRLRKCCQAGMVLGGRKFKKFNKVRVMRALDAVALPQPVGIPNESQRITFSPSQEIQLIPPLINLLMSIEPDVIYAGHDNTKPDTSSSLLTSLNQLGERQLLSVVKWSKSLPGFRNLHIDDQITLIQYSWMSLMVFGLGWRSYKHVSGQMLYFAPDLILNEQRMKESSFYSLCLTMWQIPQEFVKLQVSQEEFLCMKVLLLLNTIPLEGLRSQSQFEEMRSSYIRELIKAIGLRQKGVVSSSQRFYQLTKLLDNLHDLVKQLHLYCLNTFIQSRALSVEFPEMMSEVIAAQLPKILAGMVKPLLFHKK

Row | SMILES | log(RBA) [1] | log(RBA) [2] | log(RBA) [3] | log(RBA) [4]
1 | C#C[C@]1(O)CC[C@H]2[C@@H]3CCC4=CC(=O)CC[C@@H]4[C@H]3[C@@H](Cl)C[C@@]21C | 2.11 | 1.48 | 2.06 | 2.32
2 | C[C@]12CC[C@H]3[C@@H](CCC4=CC(=O)CC[C@@]43C)[C@@H]1CC[C@@H]2C(=O)CO | 1.23 | 1.15 | 1.4 | 1.4
3 | C[C@@H](O)[C@H]1CC[C@H]2[C@@H]3CCC4=CC(=O)CC[C@]4(C)[C@H]3CC[C@]12C | 0.3 | 0 | 0 | 1.01
4 | CC(=O)[C@@]12[C@@H](C[C@H]3[C@@H]4CCC5=CC(=O)CC[C@]5(C)[C@H]4CC[C@@]31C)C2(C)C | 2.11 | 1 | 1.9 | 2.38
5 | C#C[C@]1(O)CC[C@H]2[C@@H]3CC[C@H]4CC(=O)CC[C@@H]4[C@H]3CC[C@@]21C | 1.23 | 0.3 | 1 | 1.23
